This note sets out measurements from patent US5149865A, “New p-oxibenzoic acid derivatives, process for their preparation and their use as drug” (Klinge Pharma GmbH, priority 1991, dated 1992).

For test [1], the system named is total cholesterol (TC) and triglyceride (TG) level in the rat serum. Nature of the test: Determination of the hypolipidemic effect on rats (serum total cholesterol and triglycerides after oral administration). It is filed as in vivo, normolipemic male Wistar rats. The conditions noted are these: 100 mg/kg oral, three administrations over 3 days, groups of 10 male Wistar rats. On the procedure:
1) Determination of the hypolipidemic effect on rats
The lipid-reducing effect of the test substances was examined on groups each of 10 normolipemic male Wistar rats weighing 200 to 220 g.
The tests were carried out after a 3-week retraining of the eating habits of the animals. The controlled feeding was carried out daily from 8 a.m. to 10 a.m. The test substances were administered at 11 a.m.
The test compounds were absorbed in an aqueous solution of 0.25% agar and 0.84% sodium chloride and administered orally. After three administrations over a period of 3 days blood was extracted from the animals. Cholesterol and triglycerides were determined in the serum with the aid of the "Cobas-Bio" centrifugal analyzer of Hoffmann-La Roche:
a) Cholesterol determination
CHOD-PAP method, enzymatic color test according to J. Siedel et al. (J. Clin. Chem. Clin. Biochem. 19, 838 (1981))
b) Triglyceride determination
Enzymatic cleavage of the triglycerides with the aid of special lipases with subsequent determination of the liberated glycerol according to T. O. Tiffany et al. (Clin. Chem. 20, 476 (1974))

Test [2] deals with cholesterol biosynthesis in rat liver homogenate. Briefly: Determination of the inhibition of cholesterol synthesis in rat liver homogenate (14C acetate incorporation). It is filed as biochemical. Here is the method: 2) Determination of the inhibition of cholesterol synthesis
3 g freshly prepared rat liver were homogenized in 6 ml ice-cooled buffer and centrifuged at 20000 * g for 20 minutes. The supernatant was separated off and used for the following determinations.
10 μl of the methanolic test substance solution was pipetted into a mixture of 110 μl supernatant and 300 μl incubation solution and incubated at 37° C. for 20 minutes. Thereafter, 10 μl of a ^14 C acetate solution was pipetted in and incubated for a further 30 minutes. Thereafter, 500 μl ethanolic KOH solution was added to the mixture, further incubated for 60 minutes at 75° C. and thereafter the reaction stopped by cooling in an ice bath. To enable a yield correction to be made for the subsequent extraction of the ^14 C cholesterol forming, ^3 H cholesterol (≈10^-3) was added by pipetting. In addition, 500 μl of an ethanolic solution of cold cholesterol was added. The cholesterol of the mixture was extracted twice with 1 ml petroleum ether, the extract concentrated by evaporating to dryness and taken up in 0.6 ml of an ethanol acetone mixture (1/1). The dissolved cholesterol was then precipitated by means of 1.4 ml of a digitonin solution (=7 mg). After 15 hours at 0° C. the precipitate was centrifuged off, dissolved with 0.5 ml methanol/glacial acetic acid (33/5) and diluted with two ml methanol. The radioactivity of the resulting cholesterol was then determined in […] scintillation liquid (Dimilume) by means of a scintillation counter.
Buffer: 6.8 g KH2 PO4, 0.6 g MgCl2, 0.37 g EDTA, 1.83 g nicotine amide, 51.35 g saccharose and 0.44 ml mercaptoethanol were dissolved in distilled water and diluted to 500 ml (PH =7.2)
Incubation solution: The following were dissolved, in each case individually:
8.6 mg […] with 1.3 ml buffer
10.2 mg NADP with 1.3 ml buffer
39.6 mg glucose-6-phosphate with 0.65 ml buffer
31.6 μl glucose-6-phosphate dehydrogenase (1000 U/0.9 ml) with 0.285 buffer
These solutions were not mixed until immediately prior to use.
^14 C-acetate: Solution: 250 μCi ^14 C-Na-acetate was dissolved by means of 1 ml distilled water, Solution 2: 512.5 mg Na-acetate was dissolved in 10 ml distilled water.
Before the test, 0.1 ml of solution 1 and 0.4 ml of solution 2 were mixed and then mixed with 2 ml distilled water.
Ethanolic KOH: 10 g were dissolved in 100 ml ethanol.
Method: R. E. Dugan et al. Archives Bioch. Biophys. 152 21, (1972)

With `CC(C)(C)c1ccc(C(O)CC(O)COc2ccc(C(=O)O)cc2)cc1` (single isomer, unassigned) [Diastereomer A, 1-(4'-tert.butylphenyl)-4-(4'-carboxyphenoxy)-butanediol-1,3], the “Percentage change of total cholesterol (TC) level in the rat serum, X ± SD” value (“Percentage change of total cholesterol … X ± SD” for short) in test [1] is recorded as -39.1 ± 15.5 % Change. For the same compound, in test [1], the “Percentage change of triglyceride (TG) level in the rat serum, X ± SD” value (from here on “Percentage change of triglyceride … X ± SD”) is reported as -26.4 ± 13.1 % Change. Moreover, the “cholesterol biosynthesis in rat liver homogenate, % Control” value (“cholesterol biosynthesis … % Control” for short) in test [2] (1*10^-4 Mole/l, 100 µM) was 9 % Control; in test [2] (1*10^-5 Mole/l, 10 µM), 36 % Control; in test [2] (1*10^-6 Mole/l, 1 µM), 103 % Control; in test [2] (3*10^-4 Mole/l, 300 µM) it was 2 % Control; in test [2] (3*10^-5 Mole/l, 30 µM), 14 % Control; in test [2] (3*10^-6 Mole/l, 3 µM), 97 % Control. The “cholesterol biosynthesis … % Control” value in test [2] (3*10^-7 Mole/l, 0.3 µM) is 122 % Control.

As to `CC(C)(C)c1ccc(C(O)CC(O)COc2ccc(C(=O)O)cc2)cc1` (single isomer, unassigned) [Diastereomer B, 1-(4'-tert.butylphenyl)-4-(4'-carboxyphenoxy)-butanediol-1,3], in test [1], the “Percentage change of total cholesterol … X ± SD” value was -66.9 ± 8.6 % Change and the “Percentage change of triglyceride … X ± SD” value was -29.7 ± 15.5 % Change. The “cholesterol biosynthesis … % Control” value in test [2] (1*10^-5 Mole/l, 10 µM) is recorded as 42 % Control.

Take `CCOC(=O)C(C)(C)Oc1ccc(Cl)cc1` [Clofibrate, reference compound]: in test [1], the “Percentage change of total cholesterol … X ± SD” value is listed as -14.5 + 12.0 % Change and the “Percentage change of triglyceride … X ± SD” value is given as -29.2 + 19.4 % Change.
